Non-standard residues stand in square brackets, D forms with d. hArg = N=C(N)NCCCC[C@H](N)C(=O)O; Cit = NC(=O)NCCC[C@H](N)C(=O)O; Orn = NCCC[C@H](N)C(=O)O
System: murine E^k MHC class II allele
Assay: simultaneous assay, E^k allele (CH27 APC, TPc9.1 T hybridoma, THMCC82-103 or PGCC81-104)
Assay type: cell-based
In short: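 Read-out is [3H]TdR incorporation into HT-2 indicator cells exposed to supernatant from a 24 h primary culture. That culture combined mitomycin C-treated APC (5×10^6 cells/mL, 0.025 mg/mL mitomycin C, 20 min, 37° C), peptide, effector compound and T hybridoma, all added at once.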

[1] = Table 14, AE peptide 64 μM, supernatant 1:4
[2] = Table 15, AE peptide 16 μM, supernatant 1:4
[3] = Table 16, AE peptide 4 μM, supernatant 1:8
[4] = Table 5, AE peptide 64 μM, supernatant 1:4, normalized to E^d by a factor of 10
[5] = Table 4, AE109 homolog 64 μM, supernatant 1:2
[6] = Table 7, AE peptide 64 μM, supernatant 1:4, normalized by a factor of 5
[7] = Table 11, AE peptide 64 μM, supernatant 1:4
[8] = Table 1, AE peptide 16 μM (second value), 0.075 μM THMCC82-103, supernatant 1:2
[9] = Table 1, AE peptide 64 μM (first value), 0.075 μM THMCC82-103, supernatant 1:2

Substance: Ac-LRLKYPK-NH2 [AE301]
- Times Baseline Response, E^k [1]: 59.9
- Times Baseline Response, E^k [2]: 46.6
- Times Baseline Response, E^k [3]: 15.5

Substance: Ac-LR N KLPK-NH2 (Ac-LRNKLPK-NH2) [AE202]
- Times Baseline Response, E^k [4]: 9.3
- Times Baseline Response, E^k [2]: 5.8

Substance: Ac-Y D MKLPKSAK-NH2 [AE135]
- Times Baseline Response, E^k [5]: 1.0

Substance: Ac-LRMK D PK-NH2 (Ac-LRMKDPK-NH2) [AE230]
- Times Baseline Response, E^k [6]: 1.1

Substance: Ac-LRMKLP[Cit]-NH2 [AE241]
- Times Baseline Response, E^k (Table 9, AE peptide 64 μM, supernatant 1:4, normalized by a factor of 5): 12.2
- Times Baseline Response, E^k [3]: 1.0

Substance: Ac-ARMKLPKSAK-NH2 [AE120]
- Times Baseline Response, E^k (Table 10, AE peptide 64 μM, supernatant 1:2 (first value)): 36.8
- Times Baseline Response, E^k (Table 10, AE peptide 64 μM, supernatant 1:4 (second value)): 34.9
- Times Baseline Response, E^k [2]: 4.8

Substance: Ac-LRMK l PK-NH2 [AE164]
- Times Baseline Response, E^k [7]: 3.8
- Times Baseline Response, E^k [1]: 43.9

Substance: Ac-ARNKNPK-NH2 [AE346]
- Times Baseline Response, E^k [2]: 1.8

Substance: Ac-Y[hArg]MKLPKSAK-NH2 [AE132]
- Times Baseline Response, E^k [5]: 5.5
- Times Baseline Response, E^k [3]: 2.2

Substance: Ac-LR (mL) KyPk-NH2 [AE306]
- Times Baseline Response, E^k [1]: 13.7

Substance: Ac-Y[Orn]MKLPKSAK-NH2 [AE130]
- Times Baseline Response, E^k [5]: 1.1

Substance: Ac-LRMK Cit PK-NH2 (Ac-LRMK[Cit]PK-NH2; SMILES CSCC[C@H](NC(=O)[C@H](CCCNC(=N)N)NC(=O)[C@H](CC(C)C)NC(C)=O)C(=O)N[C@@H](CCCCN)C(=O)N[C@@H](CCCNC(N)=O)C(=O)N1CCC[C@H]1C(=O)N[C@@H](CCCCN)C(N)=O) [AE226]
- Times Baseline Response, E^k [6]: 9.0

Substance: Ac-LRMKL p K-NH2 [AE165]
- Times Baseline Response, E^k [7]: 3.6

Substance: Ac-LRM k LPK-NH2 [AE163]
- Times Baseline Response, E^k [7]: 1.1

Substance: Ac-LRMK H PK-NH2 (Ac-LRMKHPK-NH2) [AE228]
- Times Baseline Response, E^k [6]: 20.3

Substance: Ac-YRMKL-NH2 [AE116]
- Times Baseline Response, E^k [8]: 3.2
- Times Baseline Response, E^k [9]: 15.5

Substance: Ac-l RMKLPK-NH2 [AE160]
- Times Baseline Response, E^k [7]: 1.7

Substance: Ac-LR m KLPK-NH2 [AE162]
- Times Baseline Response, E^k [7]: 1.3

Substance: Ac-Y F MKLPKSAK-NH2 [AE139]
- Times Baseline Response, E^k [5]: 1.5

Substance: Ac-LR (mL) KYPk-NH2 [AE305]
- Times Baseline Response, E^k [1]: 26.8

Substance: Ac-LRM M LPK-NH2 (Ac-LRMMLPK-NH2) [AE220]
- Times Baseline Response, E^k (Table 6, AE peptide 64 μM, supernatant 1:4, reduced by a factor of 5): 12.5
- Times Baseline Response, E^k [3]: 1.1

Substance: Ac-YRMKLP-NH2 [AE115]
- Times Baseline Response, E^k [8]: 3.8
- Times Baseline Response, E^k [9]: 18.6

Substance: Ac-L[Cit]NKLPK-NH2 [AE343]
- Times Baseline Response, E^k [2]: 2.9

Substance: Ac-ARMKNPK-NH2 [AE345]
- Times Baseline Response, E^k [2]: 4.8

Substance: Ac-LRMK (mL) PK-NH2 [AE175]
- Times Baseline Response, E^k (Table 13, AE peptide 1 μM (fourth value), supernatant 1:4): 2.8
- Times Baseline Response, E^k (Table 13, AE peptide 4 μM (third value), supernatant 1:4): 6.5
- Times Baseline Response, E^k (Table 13, AE peptide 16 μM (second value), supernatant 1:4): 28.5
- Times Baseline Response, E^k (Table 13, AE peptide 64 μM (first value), supernatant 1:4): 59.0
- Times Baseline Response, E^k [1]: 58.0

Substance: Ac-LRMK[Orn]PK-NH2 [AE225]
- Times Baseline Response, E^k [6]: 13.9

Substance: Ac-LRLKWPK-NH2 [AE309]
- Times Baseline Response, E^k [1]: 48.2
- Times Baseline Response, E^k [2]: 38.0
- Times Baseline Response, E^k [3]: 1.8

Substance: Ac-YRMK-NH2 [AE117]
- Times Baseline Response, E^k [8]: 10.6
- Times Baseline Response, E^k [9]: 14.6

Substance: Ac-Y K MKLPKSAK-NH2 [AE134]
- Times Baseline Response, E^k [5]: 0.9
- Times Baseline Response, E^k [3]: 1.3

Substance: Ac-ARNKLPK-NH2 [AE344]
- Times Baseline Response, E^k [2]: 2.5

Substance: Ac-LR (mL) KLPK-NH2 [AE302]
- Times Baseline Response, E^k [1]: 26.1

Substance: Ac-LRMK Q PK-NH2 (Ac-LRMKQPK-NH2) [AE233]
- Times Baseline Response, E^k [6]: 17.0

Substance: Ac-LR[Orn]KLPK-NH2 [AE195]
- Times Baseline Response, E^k [4]: 12.1
- Times Baseline Response, E^k [2]: 19.8

Substance: Ac-LR (mL) KYPK-NH2 [AE303]
- Times Baseline Response, E^k [1]: 25.3

Substance: Ac-LRLKyPK-NH2 [AE308]
- Times Baseline Response, E^k [1]: 45.5
